Biological target: T1, Solute carrier family 22 member 12 (Homo sapiens, UniProt Q96S37)
T1 sequence (Q96S37 whole entry): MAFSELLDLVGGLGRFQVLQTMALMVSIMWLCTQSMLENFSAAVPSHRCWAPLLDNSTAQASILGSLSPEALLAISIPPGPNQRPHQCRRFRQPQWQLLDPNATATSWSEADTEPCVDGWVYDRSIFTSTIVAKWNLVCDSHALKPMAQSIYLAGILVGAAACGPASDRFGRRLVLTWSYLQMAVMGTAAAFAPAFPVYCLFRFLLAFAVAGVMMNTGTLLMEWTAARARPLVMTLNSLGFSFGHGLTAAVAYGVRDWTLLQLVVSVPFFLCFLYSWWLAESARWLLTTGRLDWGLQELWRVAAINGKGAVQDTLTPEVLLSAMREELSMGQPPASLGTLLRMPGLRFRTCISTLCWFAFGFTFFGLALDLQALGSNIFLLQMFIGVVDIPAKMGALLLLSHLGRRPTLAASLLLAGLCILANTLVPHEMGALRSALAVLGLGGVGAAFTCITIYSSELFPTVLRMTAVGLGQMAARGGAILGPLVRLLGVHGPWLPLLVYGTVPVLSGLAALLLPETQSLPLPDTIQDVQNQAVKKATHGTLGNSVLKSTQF
Assay: 150 microliter of cell lysate (100 mM of NaOH) was added in each well. Cell plate was placed on a vibrating plate and vibrated for 10 min at a speed of 600 rpm such that the cells were completely lysed. The cell plate was put in a centrifuge and spun for 5 min at a speed of 1000 rpm, then 45 microliter of supernatant was sucked out from each well and transferred to 96-well plate (Isoplate-96 Microplate from PerkinElmer).

- IC50: > 1000 nM
Structure (SMILES): N#Cc1ccc(-c2ccccc2S(=O)(=O)CC2(CC(=O)O)CC2)cc1

Source: ChEMBL document CHEMBL5726691, “Carboxylic acid compound, method for preparation thereof, and use thereof” (2018)
